Test results as given in ChEMBL document CHEMBL1909046, “DrugMatrix in vitro pharmacology data”.

How the values were obtained:
[1] = biological target: T1, Neuropeptide Y receptor type 1 (Homo sapiens, UniProt P25929); format: cell membranes, Membrane; settings: sk-n-mc; note: in other assays of this panel Not Active means under 50% inhibition at 10 µM
T1 sequence (P25929 whole entry): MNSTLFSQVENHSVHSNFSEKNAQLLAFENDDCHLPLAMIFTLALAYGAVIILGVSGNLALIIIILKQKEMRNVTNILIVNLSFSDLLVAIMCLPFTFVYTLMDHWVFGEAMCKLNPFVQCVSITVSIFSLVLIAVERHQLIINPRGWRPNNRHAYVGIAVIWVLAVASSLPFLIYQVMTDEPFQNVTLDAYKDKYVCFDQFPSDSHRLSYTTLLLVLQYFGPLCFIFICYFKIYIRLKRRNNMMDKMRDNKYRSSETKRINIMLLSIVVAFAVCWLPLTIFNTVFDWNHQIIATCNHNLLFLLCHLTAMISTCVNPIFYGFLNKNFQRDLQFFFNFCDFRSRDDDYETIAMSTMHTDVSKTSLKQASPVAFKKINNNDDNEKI

[2] = biological target: T2, Cysteinyl leukotriene receptor 1 (Homo sapiens, UniProt Q9Y271); format: cell membranes, Membrane; settings: cho-k1; note: in other assays of this panel Not Active means under 50% inhibition at 10 µM
T2 sequence (Q9Y271 whole entry): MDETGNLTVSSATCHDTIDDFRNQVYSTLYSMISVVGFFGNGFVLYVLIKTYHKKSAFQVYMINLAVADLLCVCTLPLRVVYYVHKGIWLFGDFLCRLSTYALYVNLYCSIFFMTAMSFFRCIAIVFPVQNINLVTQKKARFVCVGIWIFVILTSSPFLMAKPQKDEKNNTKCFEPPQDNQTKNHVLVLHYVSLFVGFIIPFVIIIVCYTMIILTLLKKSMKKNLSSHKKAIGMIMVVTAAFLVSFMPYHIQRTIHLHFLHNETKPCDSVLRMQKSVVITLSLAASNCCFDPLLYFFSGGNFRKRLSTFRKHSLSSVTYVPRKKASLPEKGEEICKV

Leukotriene C4 synthase = biological target: T3, Leukotriene C4 synthase (Cavia porcellus, UniProt A6XA80); format: tissue-based, Lung;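 note: enzyme inhibition assay of leukotriene C4 synthase, using LTA4 as the substrate; in other assays of this panel Not Active means under 50% inhibition at 10 µM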
T3 sequence (A6XA80 whole entry): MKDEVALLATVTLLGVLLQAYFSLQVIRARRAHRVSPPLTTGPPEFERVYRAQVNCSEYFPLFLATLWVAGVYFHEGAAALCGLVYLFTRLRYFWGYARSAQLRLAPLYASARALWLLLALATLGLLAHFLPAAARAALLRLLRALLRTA

[3] = DRUGMATRIX: Sodium/nucleoside co-transporter radioligand binding (ligand: nitrobenzylthioinosine); format: cell membranes, Cavia porcellus, Dunkin-Hartley, Cerebral cortex, Membrane; settings: Not Active = under 50% inhibition at 10 µM
[4] = biological target: T4, Nitric oxide synthase, inducible (Mus musculus, UniProt P29477); parameters: species or system Escherichia coli;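 note: inhibition of iNOS enzyme activity measured with L-arginine as substrate; in other assays of this panel Not Active means under 50% inhibition at 10 µM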
T4 sequence (P29477 whole entry): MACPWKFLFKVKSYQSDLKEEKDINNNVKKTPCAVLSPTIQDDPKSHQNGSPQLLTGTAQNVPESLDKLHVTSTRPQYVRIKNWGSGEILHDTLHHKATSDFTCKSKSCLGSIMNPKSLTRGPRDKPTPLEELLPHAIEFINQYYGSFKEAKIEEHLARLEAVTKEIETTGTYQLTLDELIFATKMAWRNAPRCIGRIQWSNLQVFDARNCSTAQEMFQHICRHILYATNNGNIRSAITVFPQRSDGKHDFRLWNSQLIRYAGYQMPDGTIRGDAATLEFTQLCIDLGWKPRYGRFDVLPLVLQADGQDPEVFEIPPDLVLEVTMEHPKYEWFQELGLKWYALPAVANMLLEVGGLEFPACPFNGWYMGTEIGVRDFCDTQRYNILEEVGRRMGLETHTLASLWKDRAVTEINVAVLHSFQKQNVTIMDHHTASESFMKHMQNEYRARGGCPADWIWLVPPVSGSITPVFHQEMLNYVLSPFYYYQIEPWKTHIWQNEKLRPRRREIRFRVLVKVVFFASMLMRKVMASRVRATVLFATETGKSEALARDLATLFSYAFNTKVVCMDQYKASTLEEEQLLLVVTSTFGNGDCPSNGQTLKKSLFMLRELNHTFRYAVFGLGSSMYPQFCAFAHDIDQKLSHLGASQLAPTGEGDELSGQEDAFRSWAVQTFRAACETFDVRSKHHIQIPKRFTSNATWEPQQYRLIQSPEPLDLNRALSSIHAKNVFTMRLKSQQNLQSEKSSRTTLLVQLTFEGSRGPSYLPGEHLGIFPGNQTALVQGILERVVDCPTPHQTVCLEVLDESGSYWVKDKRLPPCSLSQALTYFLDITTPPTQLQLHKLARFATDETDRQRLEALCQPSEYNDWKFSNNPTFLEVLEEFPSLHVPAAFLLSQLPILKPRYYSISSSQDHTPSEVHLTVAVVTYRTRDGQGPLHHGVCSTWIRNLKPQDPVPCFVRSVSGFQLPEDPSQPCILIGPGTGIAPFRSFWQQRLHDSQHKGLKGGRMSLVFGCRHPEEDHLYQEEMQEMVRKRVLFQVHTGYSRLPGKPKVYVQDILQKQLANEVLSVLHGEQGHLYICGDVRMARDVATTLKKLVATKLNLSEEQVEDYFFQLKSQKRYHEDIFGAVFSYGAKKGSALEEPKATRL

[5] = biological target: T5, Alpha-1B adrenergic receptor (Rattus norvegicus, UniProt P15823); test: DRUGMATRIX: Alpha-1B adrenergic receptor radioligand binding (ligand: prazosin); format: cell membranes, Wistar, Liver, Membrane; settings: Not Active = under 50% inhibition at 10 µM
T5 sequence (P15823 whole entry): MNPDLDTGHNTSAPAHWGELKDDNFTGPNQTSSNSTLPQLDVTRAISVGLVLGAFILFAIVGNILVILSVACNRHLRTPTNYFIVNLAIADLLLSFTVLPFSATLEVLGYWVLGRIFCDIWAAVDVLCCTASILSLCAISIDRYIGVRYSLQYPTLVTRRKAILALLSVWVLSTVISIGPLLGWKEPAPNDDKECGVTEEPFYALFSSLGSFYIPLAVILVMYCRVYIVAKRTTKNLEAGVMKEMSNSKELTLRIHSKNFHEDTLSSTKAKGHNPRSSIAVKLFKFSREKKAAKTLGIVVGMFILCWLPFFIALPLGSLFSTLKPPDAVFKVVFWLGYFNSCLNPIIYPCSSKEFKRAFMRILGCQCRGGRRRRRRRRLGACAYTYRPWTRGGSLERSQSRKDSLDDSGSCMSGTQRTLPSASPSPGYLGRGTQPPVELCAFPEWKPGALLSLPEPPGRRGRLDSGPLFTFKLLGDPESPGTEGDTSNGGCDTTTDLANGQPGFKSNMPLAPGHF

[6] = DRUGMATRIX: Atrial Natriuretic Factor (ANF) radioligand binding (ligand: [125I] ANF (rat)); format: cell membranes, Cavia porcellus, Dunkin-Hartley, Adrenal gland, Membrane; settings: Not Active = under 50% inhibition at 10 µM
[7] = DRUGMATRIX: Tumor Necrosis Factor (TNF), Non-Selective radioligand binding (ligand: [125I] TNF-alpha); format: cell membranes, Membrane; settings: u-937; Not Active = under 50% inhibition at 10 µM

Cn1c(=O)c2c(ncn2CC(O)CO)n(C)c1=O (centres undefined) [DYPHYLLINE]
Not Active: IC50 [1] | IC50 [2] | IC50 (Leukotriene C4 synthase) | IC50 [3] | Ki [3] | IC50 [4] | IC50 [5] | IC50 [6] | Ki [6] | IC50 [7] | Ki [7]

O=C(O)c1cccnc1Nc1cccc(C(F)(F)F)c1 [NIFLUMIC ACID]
Not Active: IC50 [1] | IC50 [2] | IC50 (Leukotriene C4 synthase) | IC50 [3] | Ki [3] | IC50 [4] | IC50 [5] | IC50 [6] | Ki [6] | IC50 [7] | Ki [7]

CC(C)c1cccc(C(C)C)c1O [PROPOFOL]
Not Active: IC50 [1] | IC50 [2] | IC50 (Leukotriene C4 synthase) | IC50 [3] | Ki [3] | IC50 [4] | IC50 [5] | IC50 [6] | Ki [6] | IC50 [7] | Ki [7]

COC(=O)Nc1nc2ccc(C(=O)c3cccs3)cc2[nH]1 [NOCODAZOLE]
Not Active: IC50 [1] | IC50 [2] | IC50 (Leukotriene C4 synthase) | IC50 [3] | Ki [3] | IC50 [4] | IC50 [5] | IC50 [6] | Ki [6] | IC50 [7] | Ki [7]

N=C(N)NC(=O)Cc1c(Cl)cccc1Cl [GUANFACINE]
Not Active: IC50 [1] | IC50 [2] | IC50 (Leukotriene C4 synthase) | IC50 [3] | Ki [3] | IC50 [4] | IC50 [5] | IC50 [6] | Ki [6] | IC50 [7] | Ki [7]

CC(C)NCC(O)COc1cccc2[nH]ccc12 (centres undefined) [PINDOLOL]
Not Active: IC50 [1] | IC50 [2] | IC50 (Leukotriene C4 synthase) | IC50 [3] | Ki [3] | IC50 [4] | IC50 [5] | IC50 [6] | Ki [6] | IC50 [7] | Ki [7]

CC(=O)[C@@]1(O)CC[C@H]2[C@@H]3CCC4=CC(=O)CC[C@]4(C)[C@H]3CC[C@@]21C [HYDROXYPROGESTERONE]
Not Active: IC50 [1] | IC50 [2] | IC50 (Leukotriene C4 synthase) | IC50 [3] | Ki [3] | IC50 [4] | IC50 [5] | IC50 [6] | Ki [6] | IC50 [7] | Ki [7]

CC(=O)O[C@H]1C(=O)[C@@]2(C)[C@H]([C@H](OC(=O)c3ccccc3)[C@]3(O)C[C@H](OC(=O)[C@H](O)[C@@H](NC(=O)c4ccccc4)c4ccccc4)C(C)=C1C3(C)C)[C@]1(OC(C)=O)CO[C@@H]1C[C@@H]2O [PACLITAXEL]
Not Active: IC50 [1] | IC50 [2] | IC50 (Leukotriene C4 synthase) | IC50 [3] | Ki [3] | IC50 [4] | IC50 [5] | IC50 [6] | Ki [6] | IC50 [7] | Ki [7]

CCCOc1ccc(C(=O)OCCN(CC)CC)cc1N [PROPARACAINE]
Not Active: IC50 [1] | IC50 [2] | IC50 (Leukotriene C4 synthase) | IC50 [3] | Ki [3] | IC50 [4] | IC50 [5] | IC50 [6] | Ki [6] | IC50 [7] | Ki [7]

O=C(N/N=C/c1ccc([N+](=O)[O-])o1)c1cc([N+](=O)[O-])cc([N+](=O)[O-])c1O [NIFURSOL]
Not Active: IC50 [1] | IC50 [2] | IC50 (Leukotriene C4 synthase) | IC50 [3] | Ki [3] | IC50 [4] | IC50 [5] | IC50 [6] | Ki [6] | IC50 [7] | Ki [7]

CC(=O)Oc1ccc(C(c2ccc(OC(C)=O)cc2)c2ccccn2)cc1 [BISACODYL]
Not Active: IC50 [1] | IC50 [2] | IC50 (Leukotriene C4 synthase) | IC50 [3] | Ki [3] | IC50 [4] | IC50 [5] | IC50 [6] | Ki [6] | IC50 [7] | Ki [7]

CN(C)[C@@H]1C(O)=C(C(N)=O)C(=O)[C@@]2(O)C(O)=C3C(=O)c4c(O)ccc(Cl)c4[C@@](C)(O)[C@H]3C[C@@H]12 [CHLORTETRACYCLINE]
Not Active: IC50 [1] | IC50 [2] | IC50 (Leukotriene C4 synthase) | IC50 [3] | Ki [3] | IC50 [4] | IC50 [5] | IC50 [6] | Ki [6] | IC50 [7] | Ki [7]

Nc1ccn([C@@H]2O[C@H](CO)[C@@H](O)[C@@H]2O)c(=O)n1 [CYTARABINE]
Not Active: IC50 [1] | IC50 [2] | IC50 (Leukotriene C4 synthase) | IC50 [3] | Ki [3] | IC50 [4] | IC50 [5] | IC50 [6] | Ki [6] | IC50 [7] | Ki [7]

CCC1(CCC(C)C)C(=O)NC(=O)NC1=O [AMOBARBITAL]
Not Active: Ki [1] | IC50 [2] | IC50 (Leukotriene C4 synthase) | IC50 [3] | Ki [3] | IC50 [4] | IC50 [5] | IC50 [6] | Ki [6] | IC50 [7] | Ki [7]

CCCNCC(O)COc1ccccc1C(=O)CCc1ccccc1 (centres undefined) [PROPAFENONE]
Not Active: IC50 [1] | IC50 [2] | IC50 (Leukotriene C4 synthase) | IC50 [3] | Ki [3] | IC50 [4] | IC50 [6] | Ki [6] | IC50 [7] | Ki [7]

COc1cc2nc(N3CCN(C(=O)c4ccco4)CC3)nc(N)c2cc1OC [PRAZOSIN]
Not Active: IC50 [1] | IC50 [2] | IC50 (Leukotriene C4 synthase) | IC50 [3] | Ki [3] | IC50 [4] | IC50 [6] | Ki [6] | IC50 [7] | Ki [7]
